The test has as its target Recombinant full length human PFKFB3 (Homo sapiens, UniProt Q16875). In words: PFKFB3 kinase activity assay (ADP production, ADP-Glo). (In general: ADP-Glo first removes unused ATP, then detects ADP through luciferase.)

One may read the IC50 as the concentration at which inhibition is half-maximal.

Sequence of Recombinant full length human PFKFB3 (Q16875 whole entry): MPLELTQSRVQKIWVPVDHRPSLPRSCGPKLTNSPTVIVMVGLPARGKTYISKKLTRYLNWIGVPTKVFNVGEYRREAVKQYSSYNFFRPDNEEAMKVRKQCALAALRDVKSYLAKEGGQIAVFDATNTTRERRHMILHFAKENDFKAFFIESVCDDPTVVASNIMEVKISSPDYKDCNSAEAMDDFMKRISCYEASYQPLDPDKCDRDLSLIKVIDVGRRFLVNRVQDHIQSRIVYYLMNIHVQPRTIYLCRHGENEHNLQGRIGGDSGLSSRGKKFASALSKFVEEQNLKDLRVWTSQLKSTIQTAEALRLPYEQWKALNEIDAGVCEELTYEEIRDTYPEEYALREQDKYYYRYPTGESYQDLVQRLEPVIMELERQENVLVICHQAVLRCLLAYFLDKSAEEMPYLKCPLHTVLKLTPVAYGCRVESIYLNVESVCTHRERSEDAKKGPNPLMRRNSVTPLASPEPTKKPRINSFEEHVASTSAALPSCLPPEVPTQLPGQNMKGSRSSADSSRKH

In the case of `COc1ccc(-c2c(C)sc(NC(=O)c3ccc(C(=O)O)cc3C(=O)O)c2C#N)cc1` [Example 30, 4-{[3-cyano-4-(4-methoxyphenyl)-5-methylthiophen-2-yl]carbamoyl}benzene-1,3-dicarboxylic acid], the IC50 is < 0.5 µM. Next, `O=C(O)c1cc(Cl)c(-c2cnn[nH]2)cc1NC(=O)c1cc(-c2ccc(F)c(F)c2)ccc1C(=O)O` [Example 20, 3-((2-carboxy-4-chloro-5-(1H-1,2,3-triazol-5-yl)phenyl)carbamoyl)-3′,4′-difluoro-[1,1′-biphenyl]-4-carboxylic acid]: 2 to 5 µM; `COC(=O)c1ccc(-c2ccccc2)cc1N1Cc2ccc(C(=O)O)cc2C1=O` [Compound 102, 2-(4-Methoxycarbonylbiphenyl-3-yl)-3-oxo-2,3-dihydro-1H-isoindole-5-carboxylic Acid]: < 20 µM; `O=C(O)c1cc(C(=O)Nc2cc(-c3ccc(F)c(F)c3)ccc2C(=O)O)c(C(=O)O)cc1O` [Example 28, 2-({4-carboxy-3′,4′-difluoro-[1,1′-biphenyl]-3-yl}carbamoyl)-5-hydroxybenzene-1,4-dicarboxylic acid]: < 0.5 µM. Next, `Cn1cc(-c2ccccc2)cc(N2C(=O)c3ccc(-c4c[nH]nn4)cc3C2=O)c1=O` [compound 147, 2-(1-methyl-2-oxo-5-phenyl-1,2-dihydropyridin-3-yl)-5-(1H-1,2,3-triazol-4-yl)isoindoline-1,3-dione]: < 20 µM; `O=C(O)c1ccc(-c2cnn[nH]2)cc1CNc1cc(-c2ccc(F)c(F)c2)ccc1C(=O)O` [Example 7, 3-({[2-carboxy-5-(2H-1,2,3-triazol-4-yl)phenyl]methyl}amino)-3′,4′-difluoro-[1,1′-biphenyl]-4-carboxylic acid]: 5 to 20 µM; `O=C(O)c1ccc(C(=O)Nc2cc(-c3ccccc3)ccc2C(=O)O)c(C(=O)O)c1` [Example 5, 4-({4-carboxy-[1,1′-biphenyl]-3-yl}carbamoyl)benzene-1,3-dicarboxylic acid]: 0.5 to 2 µM.

Turning to `CN(C)CCOC(=O)c1ccc(-c2ccccc2)cc1N1C(=O)c2ccc(-c3c[nH]nn3)cc2C1=O` [Example 66], the IC50 lay in the range of 2 to 5 µM. Next, `O=C(O)c1ccc(C(=O)O)c(C(=O)Nc2ncc([N+](=O)[O-])s2)c1` [Example 39, 2-[(5-nitro-1,3-thiazol-2-yl)carbamoyl]benzene-1,4-dicarboxylic acid]: 0.5 to 2 µM; `COc1cc2c(cc1C(=O)O)C(=O)N(c1cc(-c3ccc(F)c(F)c3)ccc1C(=O)O)C2=O` [compound 170, 2-(4-carboxy-3′,4′-difluoro[1,1′-biphenyl]-3-yl)-6-methoxy-1,3-dioxo-2,3-dihydro-1H-isoindole-5-carboxylic acid]: < 0.5 µM. Turning to `CC1(C)CCC(c2ccc(C(=O)O)c(NC(=O)c3cc(C(=O)O)c(F)cc3C(=O)O)c2)CC1` [Example 64, 2-{[2-carboxy-5-(4,4-dimethylcyclohexyl)phenyl]carbamoyl}-5-fluorobenzene-1,4-dicarboxylic acid], the IC50 was < 0.5 µM. Next, `COc1ccc(-c2c(C)sc(N3C(=O)c4ccc(C(=O)N[C@@H](CCC(N)=O)C(=O)O)cc4C3=O)c2C#N)cc1` [Example 21]: 5 to 20 µM; `CS(C)(=O)=NC(=O)c1ccc(C(=O)O)c(C(=O)Nc2cc(-c3ccc(F)c(F)c3)ccc2C(=O)O)c1` [Example 36, 3-(2-carboxy-5-{[methyl(methylidene)oxo-λ^6-sulfanyl]carbamoyl}benzamido)-3′,4′-difluoro-[1,1′-biphenyl]-4-carboxylic acid]: 0.5 to 2 µM. Next, `CN(C)CCOC(=O)c1ccc2c(c1)C(=O)N(c1cc(-c3ccc(F)c(F)c3)ccc1C(=O)O)C2` [Compound 129, 2-(4-Carboxy-3′,4′-difluorobiphenyl-3-yl)-3-oxo-2,3-dihydro-1H-isoindole-5-carboxylic acid 2-dimethylamino-ethyl ester]: < 20 µM; `O=C(O)c1cc(-c2cncnc2)ccc1N1C(=O)c2ccc(-c3c[nH]nn3)cc2C1=O` [Example 64]: < 20 µM.

In the case of `CN(C)CCOC(=O)c1cc(-c2ccccc2)ccc1N1C(=O)c2ccc(-c3c[nH]nn3)cc2C1=O` [Compound 78, 4-[1,3-Dioxo-5-(1H-[1,2,3]triazol-4-yl)-1,3-dihydroisoindol-2-yl]biphenyl-3-carboxylic acid 2-dimethylamino-ethyl ester], the IC50 lay within 5 to 20 µM. Turning to `CCOC(=O)c1ccc(-c2ccc(Cl)cc2Cl)cc1NC(=O)c1cc(O)c(C(=O)O)cc1C(=O)O` [Example 55, 4-{[2′,4′-dichloro-4-(ethoxycarbonyl)-[1,1′-biphenyl]-3-yl]carbamoyl}-6-hydroxybenzene-1,3-dicarboxylic acid], the IC50 was < 0.5 µM.

Take `O=C(O)c1cc(-c2cn[nH]c2)ccc1N1C(=O)c2ccc(-c3c[nH]nn3)cc2C1=O` [Compound 71, 2-[1,3-Dioxo-5-(1H-[1,2,3]triazol-4-yl)-1,3-dihydroisoindol-2-yl]-5-(1H-pyrazol-4-yl)-benzoic Acid]: the IC50 lay in the range of 0.5 to 2 µM. As for `CCCCS(=O)(=O)NC(=O)c1ccc2c(c1)C(=O)N(c1ccc(-c3ccccc3)cc1C(=O)O)C2=O` [Example 24, 4-[5-(Butane-1-sulfonylaminocarbonyl)-1,3-dioxo-1,3-dihydroisoindol-2-yl]biphenyl-3-carboxylic Acid], the IC50 was in the range of 2 to 5 µM. As to `O=C(O)c1cc(-c2ccccc2)ccc1N1C(=O)c2ccc(-c3nnn[nH]3)cc2C1=O` [Compound 94, 4-[1,3-Dioxo-5-(1H-tetrazol-5-yl)-1,3-dihydroisoindol-2-yl]biphenyl-3-carboxylic Acid], the IC50 was < 0.5 µM. On to `COC(=O)c1cc(-c2ccccc2)c(OC)cc1N1C(=O)c2ccc(-c3c[nH]nn3)cc2C1=O` [Example 38], for which the IC50 is 5 to 20 µM. Next, `NC(=O)c1ccc2c(c1)C(=O)N(c1cc(-c3ccc(F)c(F)c3)ccc1C(=O)O)C2` [compound 160, 3-(6-carbamoyl-1-oxoisoindolin-2-yl)-3′,4′-difluorobiphenyl-4-carboxylic acid]: 5 to 20 µM; `COC(=O)c1ccc(-c2ccccc2)cc1N1Cc2ccc(C(=O)NS(C)(=O)=O)cc2C1=O` [Compound 103, 3-(6-Methanesulfonylaminocarbonyl-1-oxo-1,3-dihydroisoindol-2-yl)biphenyl-4-carboxylic acid methyl ester]: < 20 µM; `CN(C)C(=O)c1[nH]nnc1-c1ccc2c(c1)C(=O)N(c1cc(-c3ccc(F)c(F)c3)ccc1C(=O)O)C2` [compound 165, 3-(6-(5-(dimethylcarbamoyl)-1H-1,2,3-triazol-4-yl)-1-oxoisoindolin-2-yl)-3′,4′-difluorobiphenyl-4-carboxylic acid]: 2 to 5 µM. Next, `CCCCOC(=O)c1ccc2c(c1)C(=O)N(c1cc(-c3ccc(F)c(F)c3)ccc1C(=O)O)C2` [Compound 128, 2-(4-Carboxy-3′,4′-difluoro-biphenyl-3-yl)-3-oxo-2,3-dihydro-1H-isoindole-5-carboxylic acid butyl ester]: 5 to 20 µM.

As to `CNCCOC(=O)c1cc(-c2ccccc2)ccc1N1C(=O)c2ccc(-c3c[nH]nn3)cc2C1=O` [Compound 81, 4-[1,3-Dioxo-5-(1H-[1,2,3]triazol-4-yl)-1,3-dihydroisoindol-2-yl]biphenyl-3-carboxylic acid 2-methylamino-ethyl ester], the IC50 was < 20 µM. Next, `O=C(OCC(O)CO)c1ccc(-c2ccccc2)cc1N1C(=O)c2ccc(-c3c[nH]nn3)cc2C1=O` (stereo not drawn) [Compound 70, 3-[1,3-Dioxo-5-(1H-[1,2,3]triazol-4-yl)-1,3-dihydroisoindol-2-yl]biphenyl-4-carboxylic acid 2,3-dihydroxy-propyl ester]: 5 to 20 µM; `COC(=O)c1cc(-c2ccccc2)ccc1N1C(=O)c2ccc(C(=O)O)cc2C1=O` [Example 12, 2-(3-Methoxycarbonylbiphenyl-4-yl)-1,3-dioxo-2,3-dihydro-1H-isoindole-5-carboxylic acid]: 2 to 5 µM; `CN(C)CCOC(=O)c1ccc(-c2ccc(F)c(F)c2)cc1N1Cc2ccc(-c3c[nH]nn3)cc2C1=O` [Compound 112, 3′,4′-Difluoro-3-[1-oxo-6-(1H-[1,2,3]triazol-4-yl)-1,3-dihydroisoindol-2-yl]biphenyl-4-carboxylic acid 2-dimethylamino-ethyl ester]: < 20 µM. In the case of `CC(CN(C)C)OC(=O)c1ccc(-c2ccc(Cl)cc2Cl)cc1NC(=O)c1cc(C(=O)O)c(O)cc1C(=O)O` (stereo not drawn) [Example 73, 2-{[2′,4′-dichloro-4-({[1-(dimethylamino)propan-2-yl]oxy}carbonyl)-[1,1′-biphenyl]-3-yl]carbamoyl}-5-hydroxybenzene-1,4-dicarboxylic acid], the IC50 was < 0.5 µM. Next, `CN(C)CCOC(=O)c1ccc(-c2ccc(F)c(F)c2)cc1N1Cc2ccc(C(=O)O)cc2C1=O` [Compound 120, 2-[4-(2-Dimethylamino-ethoxycarbonyl)-3′,4′-difluorobiphenyl-3-yl]-3-oxo-2,3-dihydro-1H-isoindole-5-carboxylic Acid]: 5 to 20 µM; `NC(=O)c1ccc2c(c1)C(=O)N(c1ccc(-c3ccccc3)cc1C(=O)O)C2=O` [Example 27]: 2 to 5 µM; `COC(=O)c1ccc(-c2ccccc2)cc1N1C(=O)c2ccc(-c3nnn[nH]3)cc2C1=O` [Example 44]: 2 to 5 µM. Next, `O=C(O)c1ccc2c(c1)C(=O)N(c1cc(-c3ccccc3)ccc1O)C2=O` [Example 3, 2-(4-Hydroxy[1,1′-biphenyl]-3-yl)-1,3-dioxo-2,3-dihydro-1H-isoindole-5-carboxylic Acid]: 0.5 to 2 µM; `N#Cc1cc(-c2ccccc2)ccc1N1C(=O)c2ccc(C(=O)O)cc2C1=O` [compound 145, 2-(3-cyanobiphenyl-4-yl)-1,3-dioxoisoindoline-5-carboxylic acid]: < 20 µM. Take `CS(=O)(=O)NC(=O)c1ccc2c(c1)C(=O)N(c1cc(-c3ccc(F)c(F)c3)ccc1C(=O)O)C2` [Compound 106, 3′,4′-Difluoro-3-(6-methanesulfonylaminocarbonyl-1-oxo-1,3-dihydroisoindol-2-yl)biphenyl-4-carboxylic Acid]: the IC50 was in the range of 2 to 5 µM.
